Source: patent publication US10448639B2, “Fungicidal pyrazoles” (FMC CORPORATION, priority 2009, dated 2019)
Where two headings read alike, the source gives them in different places.

What was measured:
[1] = tested on: Puccinia recondita f. sp. tritici; test: Test I: wheat leaf rust, preventive spray on wheat seedlings, visual disease rating; settings: for Test I rating (% disease control): wheat leaf rust, 100 = 100% disease control; for pest or weed control at 200 µg/mL: 192 h
From the text: (§1) General protocol for preparing test suspensions for Tests A-J: the test compounds were first dissolved in acetone in an amount equal to 3% of the final volume and then suspended at the desired concentration (in ppm) in acetone and purified water (50/50 mix by volume) containing 250 ppm of the surfactant Trem® 014 (polyhydric alcohol esters). The resulting test suspensions were then used in Tests A-J. Spraying a 200 ppm test suspension to the point of run-off on the test plants was the equivalent of a rate of 500 g/ha. Unless otherwise indicated, the rating values indicate a 200 ppm test suspension was used. (An asterisk “*” next to the rating value indicates a 40 ppm test suspension was used.)
The test suspension was sprayed to the point of run-off on wheat seedlings. The following day the seedlings were inoculated with a spore suspension of Puccinia recondita f. sp. tritici (the causal agent of wheat leaf rust) and incubated in a saturated atmosphere at 20° C. for 24 h, and then moved to a growth chamber at 20° C. for 7 days, after which time visual disease ratings were made
A dash (-) indicates no test results.

Botrytis cinerea = test: Test B: tomato Botrytis, preventive spray on tomato seedlings, visual disease rating; settings: for Test B rating (% disease control): tomato Botrytis, 100 = 100% disease control; for pest or weed control at 200 µg/mL: Botrytis cinerea, in Solanum lycopersicum, 120 h
Septoria tritici = test: Test G: wheat leaf blotch, preventive spray on wheat seedlings, visual disease rating; settings: for Test G rating (% disease control): wheat leaf blotch, 100 = 100% disease control; for pest or weed control at 200 µg/mL: Zymoseptoria tritici, in Triticum aestivum, 504 h
Alternaria solani = test: Test C: tomato early blight, preventive spray on tomato seedlings, visual disease rating; settings: for Test C rating (% disease control): tomato early blight, 100 = 100% disease control; for pest or weed control at 200 µg/mL: Alternaria solani, in Solanum lycopersicum, 168 h
[2] = tested on: Erysiphe graminis f sp. tritici; test: Test J: wheat powdery mildew, preventive spray on wheat seedlings, visual disease rating; settings: for Test J rating (% disease control): wheat powdery mildew, 100 = 100% disease control; for pest or weed control at 200 µg/mL: Blumeria graminis, in Triticum aestivum, 192 h
Septoria nodorum = test: Test F: Septoria glume blotch, preventive spray on wheat seedlings, visual disease rating; settings: for Test F rating (% disease control): 100 = 100% disease control; for pest or weed control at 200 µg/mL: Parastagonospora nodorum, in Triticum aestivum, 192 h
[3] = tested on: Puccinia recondita f. sp. tritici; test: Test H: wheat leaf rust, curative spray on inoculated wheat seedlings, visual disease rating; settings: for Test H rating (% disease control): wheat leaf rust, 100 = 100% disease control; for pest or weed control at 200 µg/mL: 144 h
From the text: as §1
Wheat seedlings were inoculated with a spore suspension of Puccinia recondita f. sp. tritici (the causal agent of wheat leaf rust) and incubated in a saturated atmosphere at 20° C. for 24 h, and then moved to a growth chamber at 20° C. for 2 days. At the end of this time the test suspension was sprayed to the point of run-off, and then the seedlings were moved to a growth chamber at 20° C. for 6 days after which time visual disease ratings were made.

[4] = preventive spray, 0 = no control
[5] = Septoria glume blotch on wheat, preventive spray, 0 = no control
[6] = preventive, 0 = no control relative to controls
[7] = 0 = no control relative to controls
[8] = Septoria glume blotch, 0 = no control relative to controls
[9] = curative, 0 = no control relative to controls

| Compound | Test I rating (% disease control) [1, 4] [%] | Test B rating (% disease control) (Botrytis cinerea; [4]) [%] | Test G rating (% disease control) (Septoria tritici; [4]) [%] | Test C rating (% disease control) (Alternaria solani; [4]) [%] | Test J rating (% disease control) [2, 4] [%] | Test F rating (% disease control) (Septoria nodorum; [5]) [%] | Test H rating (% disease control) ([3]; curative spray, 0 = no control) [%] | Test I rating (% disease control) [1, 6] [%] | Test B rating (% disease control) (Botrytis cinerea; [7]) [%] | Test G rating (% disease control) (Septoria tritici; [7]) [%] | Test C rating (% disease control) (Alternaria solani; [7]) [%] | Test J rating (% disease control) [2, 7] [%] | Test F rating (% disease control) (Septoria nodorum; [8]) [%] | Test H rating (% disease control) [3, 9] [%] | also measured |
| --- | --- | --- | --- | --- | --- | --- | --- | --- | --- | --- | --- | --- | --- | --- | --- |
| COc1ccc(Nc2c(-c3ccc(Cl)cc3Cl)c(C)nn2C)c(OC)c1 [compound 57] | 85 | 98 | 94 | 0 | 0 | 0 | 85 |  |  |  |  |  |  |  |  |
| Cc1nn(C)c(Nc2c(F)cc(C#N)cc2F)c1-c1c(F)cc(F)cc1F [compound 92] | 99 | 100 | 100 | 100 | 100 | 99 | 41 |  |  |  |  |  |  |  |  |
| COc1cc(F)c(Nc2c(-c3c(F)cccc3F)c(C)nn2C)c(F)c1 [compound 257] |  |  |  |  |  |  |  | 97 | 100 | 100 | 99 | 98 | 0 | 0 |  |
| Cc1nn(C)c(Oc2cc(F)c(C#N)cc2F)c1-c1ccc(F)cc1Cl [Compound 148, 4-[[4-(2-chloro-4-fluorophenyl)-1,3-dimethyl-1H-pyrazol-5-yl]oxy]-2,5-difluorobenzonitrile] |  |  |  |  |  |  |  |  |  |  |  |  |  |  | pest or weed control at 200 µg/mL ([1]; read-out: Test I rating (% disease control)): 100%; pest or weed control at 200 µg/mL (Botrytis cinerea; read-out: Test B rating (% disease control)): 99%; pest or weed control at 200 µg/mL (Septoria tritici; read-out: Test G rating (% disease control)): 100%; pest or weed control at 200 µg/mL (Alternaria solani; read-out: Test C rating (% disease control)): 99%; pest or weed control at 200 µg/mL ([2]; read-out: Test J rating (% disease control)): 99%; pest or weed control at 200 µg/mL (Septoria nodorum; read-out: Test F rating (% disease control)): 100%; pest or weed control at 200 µg/mL ([3]; read-out: Test H rating (% disease control)): 61% |
| Cc1nn(C)c(Oc2ccc(C#N)cc2Cl)c1-c1c(F)cccc1F [Compound 358, 3-chloro-4-[[4-(2,6-difluorophenyl)-1,3-dimethyl-1H-pyrazol-5-yl]oxy]benzonitrile] |  |  |  |  |  |  |  |  |  |  |  |  |  |  | pest or weed control at 200 µg/mL ([1]; read-out: Test I disease control rating): 97%; pest or weed control at 200 µg/mL (Botrytis cinerea; read-out: Test B disease control rating): 99%; pest or weed control at 200 µg/mL (Septoria tritici; read-out: Test G disease control rating): 100%; pest or weed control at 200 µg/mL (Alternaria solani; read-out: Test C disease control rating): 0%; pest or weed control at 200 µg/mL ([2]; read-out: Test J disease control rating): 97%; pest or weed control at 200 µg/mL (Septoria nodorum; read-out: Test F disease control rating): 0%; pest or weed control at 200 µg/mL ([3]; read-out: Test H disease control rating): 0% |
| Cc1nn(C)c(Nc2c(F)cc(F)cc2F)c1-c1c(F)cccc1C(F)(F)F [compound 262] |  |  |  |  |  |  |  | 68 | 99 | 0 | 51 | 99 | 0 | 0 |  |
| Cc1nn(C)c(Oc2ccc(C#N)c(C#N)c2)c1-c1ccc(F)cc1Cl [compound 168] |  |  |  |  |  |  |  | 0 | 14 | 33 | 0 | 0 | 0 | 0 |  |
| Cc1nn(C)c(Nc2cccc(F)c2F)c1-c1c(F)cc(C#N)cc1F [compound 145] | 100 | 96 | 100 | 98 | 100 | 100 | 88 |  |  |  |  |  |  |  |  |
| Cc1nn(C)c(Oc2ccc(Br)c(C#N)c2)c1-c1c(F)cc(F)cc1F [compound 225] |  |  |  |  |  |  |  | 79 | 65 | 99 | 0 | 98 | 0 | 0 |  |
| COc1cc(F)c(-c2c(C)nn(C)c2Oc2cccc(C)c2)c(F)c1 [compound 220] |  |  |  |  |  |  |  | 99 | 98 | 98 | 97 | 100 | 40 | 40 |  |
| Cc1nn(C)c(Oc2ccc([N+](=O)[O-])cc2F)c1-c1ccc(F)cc1Cl [compound 20] | 100 | 100 | 100 | 99 | 99 | 100 | 79 |  |  |  |  |  |  |  |  |
| Cc1nn(C)c(Nc2ccc(F)cc2F)c1-c1ccc(F)cc1F [compound 230] |  |  |  |  |  |  |  | 97 | 99 | 100 | 99 | 100 | 0 | 0 |  |
| Cc1nn(C)c(Nc2ccc(F)cc2F)c1-c1c(F)cccc1Cl [compound 177] |  |  |  |  |  |  |  | 83 | 100 | 98 | 100 | 100 | 73 | 0 |  |
| Cc1nn(C)c(Oc2cccc(C#N)c2)c1-c1c(F)cc(F)cc1F [compound 222] |  |  |  |  |  |  |  | 99 | 99 | 100 | 99 | 100 | 0 | 88 |  |
| CCn1nc(C)c(-c2c(F)cccc2F)c1Nc1cc(OC)cc(OC)c1 [compound 63] | 0 | 0 | 0 | 0 | 0 | 0 | 0 |  |  |  |  |  |  |  |  |
